Patent US12612360B2 (Sanofi, priority 2020, dated 2026)

Target: T1, ERα (Homo sapiens, UniProt P03372)
T1 construct: host or cells: MCF7
T1 sequence (P03372 1-595): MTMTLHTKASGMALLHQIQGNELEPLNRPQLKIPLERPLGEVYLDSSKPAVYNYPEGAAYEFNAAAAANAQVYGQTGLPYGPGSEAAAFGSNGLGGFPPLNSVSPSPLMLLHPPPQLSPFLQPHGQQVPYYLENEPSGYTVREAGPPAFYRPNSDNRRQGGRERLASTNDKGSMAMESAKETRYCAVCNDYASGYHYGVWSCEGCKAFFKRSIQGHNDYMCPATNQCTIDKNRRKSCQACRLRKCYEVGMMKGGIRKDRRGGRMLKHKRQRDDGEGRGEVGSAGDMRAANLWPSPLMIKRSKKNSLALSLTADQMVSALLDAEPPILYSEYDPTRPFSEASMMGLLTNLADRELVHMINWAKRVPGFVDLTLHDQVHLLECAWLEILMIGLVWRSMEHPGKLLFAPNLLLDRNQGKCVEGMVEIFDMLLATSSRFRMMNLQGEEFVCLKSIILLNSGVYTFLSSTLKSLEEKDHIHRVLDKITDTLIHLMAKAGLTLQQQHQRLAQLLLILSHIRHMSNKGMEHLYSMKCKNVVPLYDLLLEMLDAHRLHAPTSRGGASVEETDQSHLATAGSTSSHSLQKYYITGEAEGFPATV
Assay: Estrogen receptor degradation activity: breast cancer cell ERα in cell western assay (MCF7 cells)
Assay type: cell-based
Details: for % Degradation At 0.3 μM: 4 hours, relative to fulvestrant 0.1 μM positive control; for DC50: 4 hours post compound addition, concentration which degrades 50% of the estrogen receptor, read-out: Degradation IC50
How it was run: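 In-cell western readout: ERα immunofluorescence (Alexa 488) normalised to DNA signal (Syto-64) after formalin fixation. Compounds dosed for 4 h on MCF7 cells in stripped-serum, phenol-red-free medium over nine 1:5 steps, 0.3 to […] final; fulvestrant 0.1 μM control. IC50 in nM for 50% ERα degradation.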

| Structure (SMILES) | % Degradation At 0.3 μM [%] | DC50 [nM] |
| --- | --- | --- |
| [2H]C([2H])(CC(F)F)N1CC(=Cc2ccc(C3=C(c4ccc(Cl)cc4Cl)CCCc4cc(C(=O)O)ccc43)cc2)C1 [Example 117, 8-(2,4-dichlorophenyl)-9-(4-((1-(3,3-difluoropropyl-1,1-d2)azetidin-3-ylidene)methyl)phenyl)-6,7-dihydro-5H-benzo[7]annulene-3-carboxylic acid] | 90 | 0.9 |
| Cc1ccc(C(F)(F)F)c(C2=C(c3ccc(C=C4CN(CCCF)C4)cc3)c3ccc(C(=O)O)cc3CCC2)c1 [Example 119, 9-(4-((1-(3-fluoropropyl)azetidin-3-ylidene)methyl)phenyl)-8-(5-methyl-2-(trifluoromethyl)phenyl)-6,7-dihydro-5H-benzo[7]annulene-3-carboxylic acid] | 94 | 0.9 |
| [2H]C([2H])(CCF)N1CC(=Cc2ccc(C3=C(c4ccc(Cl)cc4Cl)CCCc4cc(C(=O)O)ccc43)cc2)C1 [Example 122, 8-(2,4-dichlorophenyl)-9-(4-((1-(3-fluoropropyl-1,1-d2)azetidin-3-ylidene)methyl)phenyl)-6,7-dihydro-5H-benzo[7]annulene-3-carboxylic acid] | 94 | 0.4 |
| Cc1c(Cl)cccc1C1=C(c2ccc(C=C3CN(CCC(F)F)C3)cc2)c2ccc(C(=O)O)cc2CCC1 [Example 126, 8-(3-chloro-2-methylphenyl)-9-(4-((1-(3,3-difluoropropyl)azetidin-3-ylidene)methyl)phenyl)-6,7-dihydro-5H-benzo[7]annulene-3-carboxylic acid] | 93 | 0.5 |
| O=C(O)c1ccc2c(c1)CCCC(c1cccc(C(F)(F)F)c1F)=C2c1ccc(C=C2CN(CCC(F)F)C2)cc1 [Example 129, 9-(4-((1-(3,3-difluoropropyl)azetidin-3-ylidene)methyl)phenyl)-8-(2-fluoro-3-(trifluoromethyl)phenyl)-6,7-dihydro-5H-benzo[7]annulene-3-carboxylic acid] | 94 | 1 |
| Cc1cccc(C2=C(c3ccc(C=C4CN(CCC(F)F)C4)cc3)c3ccc(C(=O)O)cc3CCC2)c1Cl [Example 131, 8-(2-chloro-3-methylphenyl)-9-(4-((1-(3,3-difluoropropyl)azetidin-3-ylidene)methyl)phenyl)-6,7-dihydro-5H-benzo[7]annulene-3-carboxylic acid] | 95 | 1.1 |
| Cc1cc(Cl)ccc1C1=C(c2ccc(C=C3CN(CCC(F)F)C3)cc2)c2ccc(C(=O)O)cc2CCC1 [Example 132, 8-(4-chloro-2-methylphenyl)-9-(4-((1-(3,3-difluoropropyl)azetidin-3-ylidene)methyl)phenyl)-6,7-dihydro-5H-benzo[7]annulene-3-carboxylic acid] | 95 | 0.8 |
| Cc1c(C2=C(c3ccc(C=C4CN(CCC(F)F)C4)cc3)c3ccc(C(=O)O)cc3CCC2)cccc1C(F)(F)F [Example 134, 9-(4-((1-(3,3-difluoropropyl)azetidin-3-ylidene)methyl)phenyl)-8-(2-methyl-3-(trifluoromethyl)phenyl)-6,7-dihydro-5H-benzo[7]annulene-3-carboxylic acid] | 93 | 1.1 |
| O=C(O)c1ccc2c(c1)CCCC(c1ccc(F)c(F)c1F)=C2c1ccc(C=C2CN(CCCF)C2)cc1 [Example 135, 9-(4-((1-(3-fluoropropyl)azetidin-3-ylidene)methyl)phenyl)-8-(2,3,4-trifluorophenyl)-6,7-dihydro-5H-benzo[7]annulene-3-carboxylic acid] | 96 | 0.5 |
| Cc1cc(F)ccc1C1=C(c2ccc(C=C3CN(CCCF)C3)cc2C(F)(F)F)c2ccc(C(=O)O)cc2CCC1 [Example 138, 8-(4-fluoro-2-methylphenyl)-9-(4-((1-(3-fluoropropyl)azetidin-3-ylidene)methyl)-2-(trifluoromethyl)phenyl)-6,7-dihydro-5H-benzo[7]annulene-3-carboxylic acid] | 95 | 1.8 |

Other lines, results leading:

| % Degradation At 0.3 μM [%] | DC50 [nM] | Structure (SMILES) |
| --- | --- | --- |
| 93 | 0.4 | Cc1cccc(C2=C(c3ccc(C=C4CN(CCCF)C4)cc3)c3ccc(C(=O)O)cc3CCC2)c1C(F)(F)F [Example 118, 9-(4-((1-(3-fluoropropyl)azetidin-3-ylidene)methyl)phenyl)-8-(3-methyl-2-(trifluoromethyl)phenyl)-6,7-dihydro-5H-benzo[7]annulene-3-carboxylic acid] |
| 98 | 2.68 | FCCCN1CC(=Cc2ccc(C3=C(c4ccccc4Cl)CCCc4ccccc43)cc2)C1 [Example 120, 3-(4-(8-(2-chlorophenyl)-6,7-dihydro-5H-benzo[7]annulen-9-yl)benzylidene)-1-(3-fluoropropyl)azetidine] |
| 94 | 0.7 | O=C(O)c1ccc2c(c1)CCCC(c1cc(C(F)(F)F)ccc1F)=C2c1ccc(C=C2CN(CCCF)C2)cc1 [Example 121, 8-(2-fluoro-5-(trifluoromethyl)phenyl)-9-(4-((1-(3-fluoropropyl)azetidin-3-ylidene)methyl)phenyl)-6,7-dihydro-5H-benzo[7]annulene-3-carboxylic acid] |
| 94 | 0.7 | O=C(O)c1ccc2c(c1)CCCC(c1cc(F)cc(C(F)(F)F)c1Cl)=C2c1ccc(C=C2CN(CCCF)C2)cc1 [Example 123, 8-(2-chloro-5-fluoro-3-(trifluoromethyl)phenyl)-9-(4-((1-(3-fluoropropyl)azetidin-3-ylidene)methyl)phenyl)-6,7-dihydro-5H-benzo[7]annulene-3-carboxylic acid] |
| 93 | 1.2 | O=C(O)c1ccc2c(c1)CCCC(c1ccc(F)c(C(F)(F)F)c1F)=C2c1ccc(C=C2CN(CCCF)C2)cc1 [Example 124, 8-(2,4-difluoro-3-(trifluoromethyl)phenyl)-9-(4-((1-(3-fluoropropyl)azetidin-3-ylidene)methyl)phenyl)-6,7-dihydro-5H-benzo[7]annulene-3-carboxylic acid] |
| 91 | 0.7 | O=C(O)c1ccc2c(c1)CCCC(c1ncc(Cl)cc1C(F)(F)F)=C2c1ccc(C=C2CN(CCC(F)F)C2)cc1 [Example 125, 8-(5-chloro-3-(trifluoromethyl)pyridin-2-yl)-9-(4-((1-(3,3-difluoropropyl)azetidin-3-ylidene)methyl)phenyl)-6,7-dihydro-5H-benzo[7]annulene-3-carboxylic acid] |
| 93 | 0.6 | Cc1c(C2=C(c3ccc(C=C4CN(CCC(F)F)C4)cc3)c3ccc(C(=O)O)cc3CCC2)ccc(Cl)c1F [Example 127, 8-(4-chloro-3-fluoro-2-methylphenyl)-9-(4-((1-(3,3-difluoropropyl)azetidin-3-ylidene)methyl)phenyl)-6,7-dihydro-5H-benzo[7]annulene-3-carboxylic acid] |
| 93 | 1.1 | O=C(O)c1ccc2c(c1)CCCC(c1ccc(Cl)cc1C(F)(F)F)=C2c1ccc(C=C2CN(CCC(F)F)C2)cc1 [Example 128, 8-(4-chloro-2-(trifluoromethyl)phenyl)-9-(4-((1-(3,3-difluoropropyl)azetidin-3-ylidene)methyl)phenyl)-6,7-dihydro-5H-benzo[7]annulene-3-carboxylic acid] |
| 96 | 1.6 | Cc1c(F)ccc(C2=C(c3ccc(C=C4CN(CCC(F)F)C4)cc3)c3ccc(C(=O)O)cc3CCC2)c1C [Example 130, 9-(4-((1-(3,3-difluoropropyl)azetidin-3-ylidene)methyl)phenyl)-8-(4-fluoro-2,3-dimethylphenyl)-6,7-dihydro-5H-benzo[7]annulene-3-carboxylic acid] |
| 92 | 1 | O=C(O)c1ccc2c(c1)CCCC(c1cccc(C(F)(F)F)c1Cl)=C2c1ccc(C=C2CN(CCC(F)F)C2)cc1 [Example 133, 8-(2-chloro-3-(trifluoromethyl)phenyl)-9-(4-((1-(3,3-difluoropropyl)azetidin-3-ylidene)methyl)phenyl)-6,7-dihydro-5H-benzo[7]annulene-3-carboxylic acid] |
| 92 | 0.8 | Cc1ccc(C(F)(F)F)cc1C1=C(c2ccc(C=C3CN(CCCF)C3)cc2)c2ccc(C(=O)O)cc2CCC1 [Example 136, 9-(4-((1-(3-fluoropropyl)azetidin-3-ylidene)methyl)phenyl)-8-(2-methyl-5-(trifluoromethyl)phenyl)-6,7-dihydro-5H-benzo[7]annulene-3-carboxylic acid] |
| 92 | 3.7 | COc1ccc(C(F)(F)F)cc1C1=C(c2ccc(C=C3CN(CCCF)C3)cc2)c2ccc(C(=O)O)cc2CCC1 [Example 137] |
